Our source for the logD and logP values is the SangsterLogP compilation.

A word on the logD: it is the decadic logarithm of the distribution of all forms, ionised or not, between an organic phase and buffer at a given pH. Broadly, the logP is the decadic logarithm of the partition coefficient of the neutral form, usually between octanol and water. The low end stands for a more hydrophilic compound, the high end for a more lipophilic compound.

The first data set is described as follows: method code SF-AS, from DOI: 10.1002/ddr.430140205. The conditions noted are these: pH 7.4.
On to `O=C1CCC(c2ccc(-n3ccnc3)cc2)=NN1`, for which the logD was 1.
In turn, `CSc1ccc(C(=O)c2[nH]c(=O)[nH]c2C)cc1` registered a logD of 1.55.
On the same count and under the same terms, the same measure for `O=C1CCC(c2ccncc2)=NN1`: 0.18; for `COc1ccc(CC2CNC(=O)C2)cc1OC` (centres undefined): 0.58.

The nature of the next data set: method code SF-AS, from DOI: 10.1002/1521-3838(200111)20:4<291::aid-qsar291>3.0.co;2-q.
Details: not given
On to `Cc1ccc(-c2n[nH]c(=S)o2)cc1`, for which the logP worked out at 3.44.
Consider `Oc1ccccc1-c1n[nH]c(=S)o1`, for which the logP stood at 2.42.
Take `S=c1[nH]nc(-c2ccc(Cl)cc2)o1`: the logP came out at 3.66.
Still for that read-out and setting: the same measure for `S=c1[nH]nc(-c2ccccc2Cl)o1`: 3.36.

Experiment in a further data set: not given
Details: not given
In turn, `COC(=O)CS(=O)(=O)c1ccccc1[N+](=O)[O-]` showed a logP of 0.95.
Take `CC(C)OC(=O)CS(=O)(=O)c1ccc([N+](=O)[O-])cc1[N+](=O)[O-]`: the logP turned out to be 2.01.
Turning to `COC(=O)CSc1ccc([N+](=O)[O-])cc1[N+](=O)[O-]`, the logP came to 2.03.
With `COC(=O)CS(=O)c1ccc([N+](=O)[O-])cc1Cl` (centres undefined), the logP was 1.69.

Experiment in the next data set: not given
Details: not given
The source holds these as a separate data set.
With `Cc1cc(O)cc(C)c1Cl`, the logP turned out to be 3.27.
The same measure, in the same setting: the same measure for `CC(C)(C)c1cccc(O)c1`: 3.05.
Regarding `Cc1cccc(O)c1C`, the logP came out at 2.48.
In turn, `CCC(C)c1ccc(O)cc1` (centres undefined) yielded a logP of 3.32.

Another data set is described as follows: method code SF-AS, from DOI: 10.1007/bf02922495.
Details: not given
`N#CC(C#N)=Cc1ccco1` showed a logP of 1.5.
The same measure, in the same setting: as for `COC(=O)C(C#N)=Cc1ccc(Cl)o1`, the figure is 2.4; as for `N#CC(C#N)=Cc1ccc(Cl)o1`, 2.17.
The same measure, in the same setting: the same measure for `COC(=O)/C(C#N)=C/c1ccco1`: 1.75.

Another data set can be described thus: method code SF-AS, from DOI: 10.1016/0223-5234(93)90135-2. The conditions noted are these: pH 12.2.
In turn, `NCCc1cn2ccccc2n1` had a logD of 0.59.
On the same count and under the same terms, as for `CN(C)CCc1ccccn1`, the figure is 1.12; as for `CNCCc1ccccn1`, 0.68.
Still for that read-out and setting: the same measure for `NCCc1nc(-c2ccccc2)cs1`: 2.22.

A short description of a further data set: method code SF, from DOI: 10.1111/j.2042-7158.1971.tb08772.x, PMID: 4401532. The conditions noted are these: pH 7.2.
`CC(=O)Nc1ccc([N+](=O)[O-])cc1`: the logD worked out at 1.66.
Still for that read-out and setting: the same measure for `CC(=O)Nc1ccc(I)cc1`: 2.46; for `CC(=O)Nc1ccc(C=O)cc1`: 1.25.
For the compound `CC(=O)Nc1ccc(C)cc1`, the logD turned out to be 1.4.

Another data set in a line: method code SF, from DOI: 10.1002/em.2850190108, PMID: 1732104.
Details: not given
The compound `O=C1Nc2ccc([N+](=O)[O-])cc2C1=O` showed a logP of 0.47.
The compound `O=[N+]([O-])c1ccc2c3c(cccc13)CC2` showed a logP of 3.85.
Same read-out and setting: the same measure for `Cc1ccc2cccc([N+](=O)[O-])c2n1`: 1.99.
The compound `O=[N+]([O-])c1cc([N+](=O)[O-])c2ccccc2c1` yielded a logP of 2.83.

Experiment in the next data set: not given
Details: not given
The source holds these as a separate data set.
Turning to `CCCCNCc1ccccc1`, the logP was 2.59.
On the same count and under the same terms, the same measure for `CCNCc1ccccc1`: 1.82.
Still for that read-out and setting: as for `CC(N)CCc1ccccc1` (centres undefined), the figure is 2.12; as for `CC(C)NCc1ccccc1`, 1.83.

A short description of the next data set: method code SF-AS, from DOI: 10.1002/jps.2600741028, PMID: 4078715.
Details: not given
As for `[O-][N+](=Cc1ccccc1)c1ccccc1`, the logP was 1.88.
On the same count and under the same terms, the same measure for `Cc1cccc(C)c1C#[N+][O-]`: 2.74; for `CC(C)c1ccc(C=[N+]([O-])c2ccccc2)cc1`: 3.37; for `Cc1ccc(C=[N+]([O-])c2ccccc2)cc1`: 2.41.

Experiment in a further data set: not given
Details: not given
This is another data set of the same source.
As for `CCOC(=O)Oc1ccccc1`, the logP turned out to be 2.18.
Compound `CC(C)(C)OC(=O)Oc1ccccc1` returned a logP of 3.02.
Regarding `O=C(O)CCCCCOC(=O)Oc1ccccc1`, the logP amounted to 2.56.
As to `O=C(O)[C@H]1O[C@@H](Oc2ccccc2)[C@H](O)[C@@H](O)[C@@H]1O`, the lipophilicity (logP) is 0.73.

Experiment in the next data set: not given
Details: not given
This is another data set of the same source.
`CC(=O)OC[C@H]1S[C@@H](n2ccnc2[N+](=O)[O-])[C@H](OC(C)=O)[C@@H](OC(C)=O)[C@@H]1OC(C)=O` gave a logP of 0.63.
For `CC(=O)OC[C@H]1O[C@@H](n2ccnc2[N+](=O)[O-])[C@H](OC(C)=O)[C@@H](OC(C)=O)[C@@H]1OC(C)=O`, the logP came out at 0.52.
On the same count and under the same terms, as for `O=[N+]([O-])c1nccn1[C@@H]1S[C@H](CO)[C@@H](O)[C@H](O)[C@H]1O`, the figure is -0.66.
The same measure, in the same setting: the same measure for `O=[N+]([O-])c1nccn1[C@@H]1O[C@H](CO)[C@@H](O)[C@H](O)[C@H]1O`: -1.4.

A further data set can be described thus: method code SF-HPLC, from DOI: 10.1021/jm100498u, PMID: 20704351. The conditions noted are these: pH 7.4.
With `C[C@H](c1ccccc1)n1cncc1C(=O)OCc1ccc(C2(C(F)(F)F)N=N2)cc1`, the logD worked out at 4.3.
The same measure, in the same setting: the same measure for `C[C@H](c1ccccc1)n1cncc1C(=O)OCc1ccc(C(=O)c2ccccc2)cc1`: 4.4; for `C[C@H](c1ccccc1)n1cncc1C(=O)OCCC1(C)N=N1`: 3.6.
On the same count and under the same terms, as for `CCCCCC1(CCO)N=N1`, the figure is 2.55.

A short description of the next data set: method code SF-AS, from DOI: 10.1111/j.1476-5381.1975.tb07619.x, PMID: 1182339. The settings on record: pH 10.0.
Compound `N=C(N)NC(=O)Nc1ccc([N+](=O)[O-])c(Cl)c1` registered a logD of 1.79.
Still for that read-out and setting: the same measure for `N#Cc1ccc(NC(=O)NC(=N)N)cc1Cl`: 1.9; for `N=C(N)NC(=O)Nc1ccc(Cl)cc1`: 1.78.
Same read-out and setting: the same measure for `Cc1cc(NC(=O)NC(=N)N)ccc1Cl`: 2.19.

Another data set is described as follows: method code SF-AS, from DOI: 10.1111/j.2042-7158.1979.tb13606.x, PMID: 41067. The conditions noted are these: pH 1.2.
For the compound `O=C(O)CCc1ccc(O)cc1`, the logD came to 1.16.
Same read-out and setting: the same measure for `COc1ccc(CCCC(=O)O)cc1`: 2.33; for `CCOc1ccc(CC(=O)O)cc1`: 1.95; for `COc1ccc(CC(=O)O)cc1`: 1.48.

Experiment in a further data set: not given
Details: not given
This is another data set of the same source.
As for `CSc1nc(N)nc(NC(C)(C)C)n1`, the logP was determined as 2.54.
Same read-out and setting: as for `CSc1nc(NC2CC2)nc(NC(C)(C)C)n1`, the figure is 3.38; as for `CSc1nc(NC(C)(C)C)nc(NC(C)(C)C)n1`, 4.39; as for `CSc1nc(NCCC=O)nc(NC(C)(C)C)n1`, 2.92.

The next data set in a line: method code SF, from DOI: 10.1038/bjc.1982.190, PMID: 7150475. The settings on record: pH 7.4.
`O=C1CN(/N=C/c2ccc([N+](=O)[O-])o2)C(=O)N1` registered a logD of -0.19.
The same measure, in the same setting: the same measure for `Cn1cnc([N+](=O)[O-])c1S(=O)(=O)Oc1ccccc1`: 1.08; for `O=[N+]([O-])c1nccn1CC(O)CCN1CCOCC1` (centres undefined): -0.53; for `NC(=O)c1cc(N2CC2)c([N+](=O)[O-])cc1[N+](=O)[O-]`: 0.2.

A further data set is described as follows: method code SF, from DOI: 10.1016/0378-5173(86)90155-9. The conditions noted are these: pH 7.0.
As to `CS(=O)(=O)CCCOc1ccc([N+](=O)[O-])cc1`, the logD is 1.1.
In the case of `NC(=O)CCCCOC(=O)c1ccccc1`, the logD stood at 1.39.
The same measure, in the same setting: as for `CSCCCOc1ccc([N+](=O)[O-])cc1`, the figure is 3.24.
In turn, `NS(=O)(=O)CCCOc1ccc([N+](=O)[O-])cc1` gave a logD of 0.97.

Another data set in a line: method code SF-AS, from DOI: 10.1080/00021369.1974.10861343.
Details: not given
`CCOC(=O)C=COc1ccccc1Cl` had a logP of 3.55.
The same measure, in the same setting: as for `COC(=O)/C=C/Oc1ccccc1`, the figure is 2.68; as for `COC(=O)C=COc1ccccc1Cl`, 3.02.

The data set is the same for the next values; noted with them: pH 3.0.
For `O=C(O)/C=C/Oc1ccc(Cl)cc1Cl`, the logD came to 3.46.

The next data set in a line: method code SF-AS, from DOI: 10.1021/jf950378u.
Details: not given
Consider `COc1ccc([C@@H]2CC(=O)c3c(O)cc(O[C@@H]4O[C@H](CO[C@@H]5O[C@@H](C)[C@H](O)[C@@H](O)[C@H]5O)[C@@H](O)[C@H](O)[C@H]4O)cc3O2)cc1O`, for which the logP was 0.32.
In the case of `Oc1cc(O)c2c(c1)O[C@H](c1ccc(O)c(O)c1)[C@@H](O)C2`, the logP came to 1.31.
In turn, `O=c1ccc2ccc(O)c(O)c2o1` registered a log partition coefficient (logP) of 0.71.
The same measure, in the same setting: the same measure for `O=C(O)/C=C/c1ccccc1O`: 0.62.

Another data set in a line: method code SF-HPLC, from DOI: 10.1023/a:1016462801968, PMID: 3334410.
Details: not given
Compound `CCCC(=O)OCC(COC(=O)CCC)OCn1cnc2c(=O)[nH]c(N)nc21` returned a logP of 0.83.

A short description of another data set: method code SF-GLC, from DOI: 10.1016/s0021-9673(01)83612-8. The conditions noted are these: pH 13.0.
On to `CCCCCC(C)N` (centres undefined), for which the logD worked out at 2.4.
Compound `CC(N)CC1CCCCC1` (centres undefined) showed a logD of 2.96.
Same read-out and setting: the same measure for `CNC1CCc2ccccc2C1` (centres undefined): 2.38.
